Measurements: PMC12472494, “Anticonvulsant Potential of 1-Aryl-6,7-dimethoxy-1,2,3,4-tetrahydroisoquinolines: Insights from Strychnine and Nicotine Models in In Vivo and In Silico Studies” (Pharmaceuticals, 2025)

Columns and labels:
[1] = parameters: method as in PMID 36677539; conditions: per os; cited from earlier work
[2] = system: strychnine-induced seizures; test: Strychnine-induced seizure model; type: in vivo, mice; conditions: oral dose 1.0 mg/kg 60 min before strychnine 1.5 mg/kg s.c., N = 10; for responders at 1 mg/kg: Mus musculus, read-out: Survival Rate; for Duration of Tremor and Seizures / Latency to Tremor and Seizure Onset: mean ± SD
[3] = system: tremorogenic and convulsive actions of nicotine; test: Nicotine-induced tremor and seizure model; type: in vivo, mice; conditions: for responders at 1 mg/kg: Mus musculus, po, read-out: Survival Rate; for Duration of Seizures / Latency to Seizure Onset: oral dose 1.0 mg/kg 60 min before nicotine 10 mg/kg s.c., mean ± SD, N = 10

SMILES	LD50 [1]	responders at 1 mg/kg [2]	Duration of Tremor and Seizures [2]	Latency to Tremor and Seizure Onset [2]	responders at 1 mg/kg [3]	Duration of Seizures [3]	Latency to Seizure Onset [3]	survival rate of the animals increased to ([3]; at low doses (0.1–5 mg/kg))	activity against tremorogenic and convulsive actions of nicotine versus reference drugs (in words) ([3]; doses of 0.1–5 mg/kg)
COc1cc2c(cc1OC)C(c1cccc(N)c1)NCC2 (stereo not shown) [Compound 33, 1-(3′-Aminophenyl)-6,7-dimethoxy-1,2,3,4-tetrahydroisoquinoline]	732.0 (598.2 ± 885.4) mg/kg	50%	0.42 ± 0.8 min	16.7 ± 1.0 min	80%	17.0 ± 0.6 min	2.2 ± 0.04 min	–	–
COc1cc2c(cc1OC)C(c1ccc(N)cc1)NCC2 (stereo not shown) [Compound 34, 1-(4′-Aminophenyl)-6,7-dimethoxy-1,2,3,4-tetrahydroisoquinoline]	1043.2 (993.3 ± 1082.6) mg/kg	40%	0.34 ± 0.7 min	15.5 ± 1.8 min	90%	10.2 ± 0.7 min	2.2 ± 0.04 min	90–100%	comparable activity to the reference drugs
